This note sets out measurements from ChEMBL document CHEMBL1142072, “Comparison of itraconazole and fluconazole treatments in a murine model of coccidioidal meningitis” (2007).

In brackets after ≈: the same amount, converted by molar mass. Activity calls are given as the source filed them. The calls are words filed in the database; no cut-off is given here.

The test system of experiment [1] is Coccidioides immitis. Nature of the experiment: Reduction of fungal burden in Coccidioides immitis Silveira infected po dosed CD1 mouse brain, spinal cord, lung, kidney administered twice daily after 3 days of infection measured after 5 days relative to control. Type of experiment: functional, organism-based.
Experiment [2] deals with Coccidioides immitis. The experiment in a line: Antifungal activity against Coccidioides immitis by broth macrodilution method. To be noted: for MIC50 / MIC90: Coccidioides immitis. The experiment is classed as functional.
In experiment [3] the test system is Mus musculus. Nature of the experiment: Prolongation of survival in CD1 mouse infected with Coccidioides immitis Silveira administered after 3 days of infection at 10 mg/kg, po bid after 12 days relative to control. On the set-up: dose 10 mg/kg. The experiment is classed as functional, organism-based.
In experiment [4] the test system is Mus musculus. Nature of the experiment: Prolongation of survival in CD1 mouse infected with Coccidioides immitis Silveira administered after 3 days of infection at 25 mg/kg, po bid after 12 days relative to control. On the set-up: dose 25 mg/kg. The experiment is classed as functional, organism-based.
Experiment [5] relates to Mus musculus. Nature of the experiment: Prolongation of survival in CD1 mouse infected with Coccidioides immitis Silveira administered after 3 days of infection at 50 mg/kg, po bid after 12 days relative to control. Type of experiment: functional, organism-based. Further details: dose 50 mg/kg.
Experiment [6] relates to Coccidioides immitis. The experiment in a line: Effect on fungal burdens in Coccidioides immitis Silveira infected CD1 mouse brain administered after 3 days of infection at 50 mg/kg, po bid after 12 days. Type of experiment: functional.
Experiment [7] deals with Coccidioides immitis. The experiment in a line: Effect on fungal burdens in Coccidioides immitis Silveira infected CD1 mouse spinal cord administered after 3 days of infection at 50 mg/kg, po bid after 12 days. The experiment is classed as functional.
The subject of experiment [8] is Coccidioides immitis. The experiment in a line: Effect on fungal burdens in Coccidioides immitis Silveira infected CD1 mouse lung administered after 3 days of infection at 50 mg/kg, po bid after 12 days. Type of experiment: functional, organism-based. On the set-up: dose 50 mg/kg.
Experiment [9] concerns Coccidioides immitis. The experiment in a line: Effect on Coccidioides immitis Silveira infection in CD1 mouse brain, spinal cord and lungs administered after 3 days of infection at 50 mg/kg, po bid after 10 days. Further details: dose 50 mg/kg. The experiment is classed as functional, organism-based.
The test system of experiment [10] is Mus musculus. Nature of the experiment: Prolongation of survival in po dosed CD1 mouse infected with Coccidioides immitis Silveira administered after 3 days of infection after 12 days relative to control. The experiment is classed as functional, organism-based.
In experiment [11] the test system is Coccidioides immitis. The experiment in a line: Reduction of fungal burden in Coccidioides immitis Silveira infected CD1 mouse lung and kidney administered after 3 days of infection at 10 mg/kg, po bid after 5 days relative to control. The experiment is classed as functional, organism-based. Further details: dose 10 mg/kg.

Broadly, the MIC50 is the lowest concentration that inhibits either 50% of growth or 50% of the strains tested, depending on the study. Read a high MIC50 as lower susceptibility. As a reminder, the MIC90 is the lowest concentration that inhibits either 90% of growth or 90% of the strains tested, depending on the study. Lower therefore signals greater potency. On to `CCC(C)n1ncn(-c2ccc(N3CCN(c4ccc(OCC5COC(Cn6cncn6)(c6ccc(Cl)cc6Cl)O5)cc4)CC3)cc2)c1=O` (configuration not stated) [ITRACONAZOLE], for which the Activity entry with Coccidioides immitis [1] and with Mus musculus [10] was “Dose-dependent effect” in each case. This compound returned an MFC50 against Coccidioides immitis [2] of 1.56 µg/mL (≈ 2.21 µM). In the experiment with Coccidioides immitis [2], this compound had an MFC90 of 6.25 µg/mL (≈ 8.86 µM). The compound further registered an MIC50 in the experiment on Coccidioides immitis [2] of 0.78 µg/mL (≈ 1.11 µM). The compound also showed an MIC90 against Coccidioides immitis [2] of 1.56 µg/mL (≈ 2.21 µM). Besides, the result in the experiment with Mus musculus [3], with Mus musculus [4], in the experiment on Mus musculus [5], in the experiment on Coccidioides immitis [8] and in the experiment on Coccidioides immitis [9] was Active. Further, the log10CFU/g came to 0.75 in the experiment on Coccidioides immitis [6] and 1.73 with Coccidioides immitis [7].
In the case of `OC(Cn1cncn1)(Cn1cncn1)c1ccc(F)cc1F` [FLUCONAZOLE], the Activity result in the experiment on Coccidioides immitis [1] and in the experiment with Mus musculus [10] was “Dose-dependent effect” each time. In the experiment with Coccidioides immitis [11], the outcome was inactive. This compound also returned an MFC50 against Coccidioides immitis [2] of 25 µg/mL (≈ 81.6 µM). In the experiment with Coccidioides immitis [2], this compound returned an MFC90 greater than 100 µg/mL. The compound further gave an MIC50 in the experiment on Coccidioides immitis [2] of 25 µg/mL (≈ 81.6 µM). Besides, the MIC90 against Coccidioides immitis [2] was greater than 100 µg/mL. The result in the experiment on Mus musculus [3], with Mus musculus [4], with Mus musculus [5], in the experiment on Coccidioides immitis [6], with Coccidioides immitis [7] and in the experiment with Coccidioides immitis [8] was Active. The result with Coccidioides immitis [9] was Active.
